Laboratory results from PubChem BioAssay (NCI).
Where “and” joins values, the source holds several entries; their conditions need not be identical. Equal values may be shown once.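 Following 48 hours of exposure in 96-well plates, responses at five concentrations were used to interpolate endpoints linearly. GI50 marks 50% less growth. Definition used: TGI = concentration required for complete inhibition of growth.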

Columns and labels:
Assay in all cases: NCI-60 cell line screen, 48 h
A498 renal = tested on: A498 renal
OVCAR-8 ovarian = tested on: OVCAR-8 ovarian
RXF 393 renal = tested on: RXF 393 renal
SF-539 CNS = tested on: SF-539 CNS
SR leukemia = tested on: SR leukemia
CAKI-1 renal = tested on: CAKI-1 renal
EKVX NSCLC = tested on: EKVX NSCLC
SN12C renal = tested on: SN12C renal
CCRF-CEM leukemia = tested on: CCRF-CEM leukemia
MDA-MB-435 = tested on: MDA-MB-435

| SMILES | GI50 (A498 renal) [µM] | TGI (A498 renal) | GI50 (OVCAR-8 ovarian) [µM] | TGI (OVCAR-8 ovarian) | GI50 (RXF 393 renal) [µM] | TGI (RXF 393 renal) | GI50 (SF-539 CNS) [µM] | GI50 (SR leukemia) [µM] | TGI (CAKI-1 renal) [µM] | TGI (EKVX NSCLC) [µM] | TGI (SF-539 CNS) [µM] | TGI (SN12C renal) [µM] | TGI (SR leukemia) [µM] | GI50 (CAKI-1 renal) [µM] | GI50 (CCRF-CEM leukemia) [µM] | TGI (CCRF-CEM leukemia) [µM] | GI50 (EKVX NSCLC) [µM] | GI50 (MDA-MB-435) [µM] | TGI (MDA-MB-435) [µM] | GI50 (SN12C renal) [µM] |
| --- | --- | --- | --- | --- | --- | --- | --- | --- | --- | --- | --- | --- | --- | --- | --- | --- | --- | --- | --- | --- |
| COc1ccc2cc1Oc1ccc(cc1)C[C@H]1c3cc(c(OC)cc3CCN1C)Oc1c(OC)c(OC)cc3c1[C@H](C2)N(C)CC3 | 5.98 | 13.2 µM and 19.2 µM and > 100 µM | 6.53 | 16.3 µM and 19.2 µM and > 100 µM | 1.97 | 12.1 µM and 6.61 µM | 2.03 | 0.0282 | – | – | – | – | – | – | – | – | – | – | – | – |
| CCCCCCCCCCCCCCCC(=O)NCC(COP(=O)([O-])OCC[N+](C)(C)C)OCC (stereo unspecified) | – | – | – | 17.2 µM | – | 5.3 µM | – | – | 35.2 | 36.5 | 29.8 | 25 | 18.6 | – | – | – | – | – | – | – |
| O=C(c1ccc2ccccc2c1)c1c(C(F)(F)F)n([O-])c2cc(Cl)c(Cl)cc2[n+]1=O | 1.96 | 4.68 µM | 1.61 | 3.27 µM | 1.6 | 3.04 µM | 1.59 | – | 2.63 | 3.47 | 2.93 | 3.1 | – | 1.35 | 2.41 | 4.78 | 2.04 | 1.92 | 3.56 | 1.73 |
| CSc1nc(SC)c2c(CN=[N+]=[N-])c(Br)n(Cc3ccccc3)c2n1 | – | > 100 µM | – | > 100 µM | – | – | – | – | > 100 | > 100 | > 100 | > 100 | > 100 | – | – | > 100 | – | – | > 100 | – |
| COC(=O)C(C#N)=C1c2ccccc2Oc2ccccc21 | – | > 100 µM | – | > 100 µM | – | > 100 µM | – | – | > 100 | > 100 | > 100 | > 100 | – | – | – | > 100 | – | – | – | – |
| CCCCCCCCCCCCC(=O)OC(c1cnco1)c1nc(C(O)CC(O)C(O)C(C)O)co1 (stereo unspecified) | – | > 100 µM | 0.849 | > 55.7 µM | 0.486 | 64.2 µM | 3.73 | 0.337 | > 55.3 | > 100 | > 100 | > 100 | 2.5 | 4.96 | 0.838 | > 61.5 | 6.56 | – | – | 4.09 |
| CC(C)(C)OC(=O)n1cc(CNC(=S)Nc2ccccc2)c2ccccc21 | 15.1 | 31.2 µM | 16.9 | 35.4 µM | 19.3 | 43.2 µM | 12.3 | 5.07 | 23.2 | 21.5 | 25.4 | 28.4 | > 100 | 4.68 | – | – | 4.15 | 12.2 | 30.1 | 15.1 |
| COC(=O)C(c1[nH]nc2ccccc12)C(C(=O)OC)c1[nH]nc2ccccc12 (stereo unspecified) | – | > 100 µM | – | 77.6 µM | – | 66.3 µM | – | – | – | > 100 | 44.9 | > 100 | > 100 | – | – | > 100 | – | – | – | – |
| C=C1C(O)C2CCC(C)(C)C(=O)C2=C(CC(C)C)C12CC2 (stereo unspecified) | – | – | > 100 | > 100 µM | 53.1 | > 100 µM | 70.7 | 34 | 86.6 | > 100 | > 100 | > 100 | > 100 | 31.2 | 36.8 | > 100 | 78.7 | 67.4 | > 100 | 63.8 |
